Earlier results in patent US8197846B2, “Sustained release pharmaceutical composition” (Astellas Pharma Inc., priority 2003, dated 2012).
Counter-ions that a name gives are not always drawn.

Legend:
[1] = not given; remark: listed apart in the source

Row | frequency of orthostatic syncope, headache and sleepiness (package insert, psychoneural area) | day on which plasma concentration profiles reached the steady state ([1]; repeated administration per os for seven days) [days] | SMILES | adverse reactions when administered as powder triturated with lactose (powder triturated with lactose) | adverse reactions (including abnormal clinical data) presumably related to the agent (104 cases among 4724 cases, approval and post marketing surveillance in Japan) [%] | frequency of hypotension, postural hypotension, blood pressure, tachycardia and palpitation (package insert, circulatory area) | Cmax and AUC versus dose ([1]; 0.1 to 0.6 mg oral, healthy adult volunteers)
1 | – | – | CCOc1ccccc1OCCN[C@H](C)Cc1ccc(OC)c(S(N)(=O)=O)c1 [Tamsulosin, (R)(−)-5-[2-[[2-(o-ethoxyphenoxy)ethyl]-amino]propyl]-2-methoxybenzenesulfonamide] | postural hypotension was induced | – | – | –
2 | less than 0.1% | 4 | CCOc1ccccc1OCCN[C@H](C)Cc1ccc(OC)c(S(N)(=O)=O)c1 [tamsulosin hydrochloride] | – | 2.2 | less than 0.1% | increased almost in proportion to the dose administered
